Source: PMC5554220, “A Novel Aldosterone Antagonist Limits Renal Injury in 5/6 Nephrectomy” (Scientific Reports, 2017)

How the values were obtained:
[1] = target: T1, human glucocorticoid receptor (hGR) (Homo sapiens, UniProt P04150); assay: Radioligand binding, hGR expressed in HEK293 cells; conditions: hGR expressed in HEK293 cells; read-out: Mean Ki ± SEM hGR*
T1 construct: expressed in transfected cells; host or cells: HEK293 cells
T1 sequence (P04150 1-777): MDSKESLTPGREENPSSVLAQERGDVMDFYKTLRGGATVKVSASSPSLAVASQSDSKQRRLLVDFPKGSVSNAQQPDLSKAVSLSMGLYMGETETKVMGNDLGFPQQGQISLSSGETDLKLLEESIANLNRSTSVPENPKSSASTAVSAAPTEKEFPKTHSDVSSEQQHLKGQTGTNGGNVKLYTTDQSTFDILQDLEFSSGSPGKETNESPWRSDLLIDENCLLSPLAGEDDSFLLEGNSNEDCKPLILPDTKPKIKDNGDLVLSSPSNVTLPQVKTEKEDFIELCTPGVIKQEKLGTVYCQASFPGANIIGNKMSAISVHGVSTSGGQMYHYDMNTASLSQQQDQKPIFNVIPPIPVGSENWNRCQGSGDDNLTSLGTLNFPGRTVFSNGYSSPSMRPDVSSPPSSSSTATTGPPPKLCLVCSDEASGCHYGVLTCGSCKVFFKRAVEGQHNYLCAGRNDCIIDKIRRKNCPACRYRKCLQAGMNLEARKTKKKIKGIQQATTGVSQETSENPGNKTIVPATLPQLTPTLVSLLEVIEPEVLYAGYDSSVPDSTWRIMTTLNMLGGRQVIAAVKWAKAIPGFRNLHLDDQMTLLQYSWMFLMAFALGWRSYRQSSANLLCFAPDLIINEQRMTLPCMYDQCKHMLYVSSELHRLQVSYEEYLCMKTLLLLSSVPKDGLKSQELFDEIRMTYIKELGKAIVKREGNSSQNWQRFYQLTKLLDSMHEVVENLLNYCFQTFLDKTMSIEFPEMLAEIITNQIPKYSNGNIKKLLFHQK
Experimental: Affinity of ligands to the soluble receptor was determined using vacuum filtration methods, preparing soluble receptors in 96-well Falcon polystyrene plates (BD Biosciences, Bedford, MA) in a total volume of 250 μl. The hMR Sf9 lysate (approximately 20–25 μg protein in 20 μl) was incubated in the absence or presence of competing ligands with 10 μl of [1,2,6,7-3H] […] Binding studies for ligands for hPR and hAR were determined using [1,2,6,7-3H(N)] Progesterone (specific activity 103 Ci/mmol, at a final concentration 0.5 nM; NET381, NEN/Perkin Elmer Life Sciences, Boston, MA) and [17α-methyl-3H] Mibolerone, an enzymaticaly stable analog of testosterone (specific activity 76.8 Ci/mmol, final concentration 0.3 nM; NET919, NEN), respectively. Specific binding of 3H-progesterone for hPR and 3H-mibolerone for hAR was determined in the presence and absence of 1 μM mifepristone. Inhibition constants (Ki), were determined either from the Cheng-Prusoff equation[32], or directly using non-linear regression curve fitting to a three-parameter one-site competitive equation. Ki values obtained from individual concentration response curves were reported as the mean ± SEM. Protein was measured using colorimetric detection and quantification of bicinchoninic acid (BCA Protein Assay, Pierce, Rockford, IL). Cos-7L cells were cotransfected with expression vectors and a reporter plasmid responsive to all 3 nuclear hormone receptors. pBluescript II SK (+) (Stratagene, San Diego, CA) was included as a source of carrier DNA. The number of repetitions of full concentration response curves (n) represents values from at least two independent experiments for each condition. Concentration response curves were analyzed statistically using a four-parameter logistic equation (Hill equation for sigmoid curves). Similar methodology was adopted for the human glucocorticoid receptor (hGR) expressed in HEK293 cells.

[2] = tested on: rats with 5/6 renal ablation (Nx); assay: Protocol 1 (early treatment), 5/6 renal ablation (Nx); assay type: in vivo, male Munich-Wistar rats
Excerpt: (§1) One-hundred forty-five adult male Munich-Wistar rats, obtained from a local facility at the Faculty of Medicine, University of São Paulo, weighing between 220 and 250 g, were used in this study. All experimental procedures were approved by the local Research Ethics Committee (Comissão de Ética para Análise de Projetos de Pesquisa do Hospital das Clínicas da Faculdade de Medicina da Universidade de São Paulo, CAPPesq, process n° 0905/09), and carried out following strictly our institutional guidelines and current international standards for manipulation and care of laboratory animals. Body weights and general conditions were assessed daily. Five-sixths renal ablation (Nx) was performed as a single-step procedure under anesthesia with ketamine 50 mg/kg and xylazine 10 mg/kg im. After ventral laparotomy, the right kidney was excised and two or three branches of the left renal artery were ligated, so as to promote infarction of two-thirds of the left kidney. The operation was invariably well tolerated. Sham-operated rats underwent anesthesia and manipulation of the renal pedicles without removal of renal mass. After surgery, rats received enrofloxacin and, upon recovery, had free access to tap water and regular rodent chow containing 0.5 Na and 22% protein (Nuvital Labs, Curitiba, Brazil), and were kept at 23 ± 1 °C and 60 ± 5% relative air humidity, under an artificial 12–12 hour light/dark cycle. Rats were then treated following two different experimental protocols (described later).
In this first protocol, Nx rats were divided into groups: NX + V (N = 8), receiving vehicle; NX + Eple (N = 8), receiving oral (mixed with the chow) Eple, 150 mg/kg/day; and Nx + Ly (N = 8), receiving oral Ly, 20 mg/kg/day. A group of sham-operated rats (S, N = 7) was also studied. Treatments were started 24 h after surgery. Rats were followed during 60 days, with determination of TCP and UalbV on Days 30 and 60. TCP was assessed with an optoelectronic automated device (Visitech Systems, Apex, NC), after rats had been preconditioned so as to remain calm during the procedure. UalbV was measured with a conventional immunodiffusion technique. On Day 60, rats were anesthetized as described before, and blood was collected from the abdominal aorta for determination of serum creatinine, serum K^+, PRA and PAC. The remnant kidney was then perfusion-fixed with Duboscq-Brazil solution after a brief washout with saline to remove blood from renal vessels, and prepared for histomorphometric and immunohistochemical analyses using conventional sequential techniques.
(§2) Histomorphometric analysis was performed blindly by two independent observers. The extent of glomerular injury was estimated, in PAS-stained sections, by determining the percentage of glomeruli with sclerotic lesions. The fraction of the renal cortical area occupied by interstitial tissue (%INT) was estimated in 25 consecutive microscopic fields of Masson-stained sections by a point-counting technique, at a final magnification of 200X, under a 144-point grid.
PRA and PAC were determined using commercially available radioimmunoassay kits (Renin Active IRMA and Aldosterone Active RIA, Beckman Coulter, Carlsbad, CA).

[3] = tested on: rats with 5/6 renal ablation (Nx); assay: Protocol 2 (late treatment), 5/6 renal ablation (Nx); assay type: in vivo, male Munich-Wistar rats
Excerpt: as §1
In Protocol 2, adult male Munich-Wistar rats were subjected to Nx as described earlier, and left untreated for two months. At this time, TCP and UalbV were assessed as described earlier. Rats with TCP ≤ 170 mmHg or UalbV ≤ 40 mg/day were excluded from the study. The remaining […] Nx rats were divided into four experimental groups: Nx + V (N = 14), untreated Nx rats; Nx + L (N = 15), receiving oral L, 50 mg/kg in drinking water; Nx + L + Eple (N = 14), receiving L and Eple (N = 14), 150 mg/kg/day; and Nx + L + Ly (N = 14), receiving L and Ly (20 mg/kg/day) as described before. A group of S rats (N = 16) was also included. All groups were followed for 90 days after treatments were started (150 days after nephrectomy), with monthly measurement of TCP and UalbV. At the end of this period, rats were anesthetized, blood was collected, and the renal tissue was perfusion-fixed and prepared for histomorphometric and immunohistochemical examination in the same manner as for Protocol 1.
as §2
Immunohistochemistry was performed on 4-μm-thick sections, mounted on glass slides precoated with 2% silane. Sections were deparaffinized and rehydrated by conventional techniques, then heated in citrate buffer for antigen retrieval and incubated overnight with the primary antibody at 4 °C (no antibody in negative control experiments). Primary antibodies used were: monoclonal mouse anti-rat ED-1 (Serotec, Oxford, UK); polyclonal rabbit anti-human AngII (Peninsula Laboratories, San Carlos, CA); and polyclonal rabbit anti-collagen I (Abcam, Cambridge, UK).
For ED-1 detection, sections were preincubated with 5% normal rabbit serum to prevent nonspecific binding, then incubated overnight at 4 °C with the primary antibody diluted in BSA at 1%. […]

Nx rats = assay: Preliminary experiments to determine the doses of Eple and Ly; assay type: in vivo
Experimental: Preliminary experiments were performed to exclude the possibility that any differences between Eple and Ly, both in monotherapy and as add-ons to L, were simply due to the use of inadequately low doses of either compound. In the first set of experiments, Nx rats received Eple at the recommended dose of 85 mg/kg, and at 150 mg/kg, higher than in most studies reported so far. […] Other Nx rats received Ly at either 12 mg/kg (the recommended dose) or 20 mg/kg. […] Based on these preliminary results, we set the doses of Eple and Ly at 150 mg/kg and 20 mg/kg, respectively.

SMILES | Ki [1] [nM] | Albumin excretion rate (UalbV) ([2]; 60 days after ablation, Eple 150 mg/kg/day, Ly 20 mg/kg/day oral) | Fractional cortical interstitial area ([2]; Day 60) | Left kidney weight corrected for body weight (renal hypertrophy) ([2]; Day 60) | Plasma aldosterone concentration (PAC) ([2]; Day 60) | Plasma K+ levels ([2]; Day 60, versus Nx + V) | Tail-cuff pressure (TCP) ([2]; Eple 150 mg/kg/day, Ly 20 mg/kg/day oral) | Plasma renin activity (PRA) ([3]; Day 150) | Maximal nontoxic dose, defined by stunting of body growth (Nx rats) [mg/kg] | Dose-response effect on the parameters studied (Nx rats; Eple 85 mg/kg vs 150 mg/kg) | PRA (Nx rats; Eple 150 mg/kg dose vs 85 mg/kg) | Body growth (Nx rats; Eple, dose higher than 150 mg/kg) | Density of interstitial AngII+ cells ([3]; Day 150) | Interstitial macrophage infiltration ([3]; Day 150) | Percent cortical area occupied by collagen I (interstitial fibrosis) ([3]; Day 150) | Percentage of glomeruli with sclerotic lesions (GS%) ([3]; Day 150) | Plasma aldosterone concentration (PAC) ([3]; Day 150) | Albumin excretion rate (UalbV) ([3]; treatment Day 60-150) | Tail-cuff pressure (TCP) ([3]; treatment Day 60-150, L 50 mg/kg, Eple 150 mg/kg/day, Ly 20 mg/kg/day)
CC(=O)S[C@@H]1CC2=CC(=O)CC[C@]2(C)[C@H]2CC[C@@]3(C)[C@@H](CC[C@@]34CCC(=O)O4)[C@H]12 [Spironolactone, spironolactone, reference compound] | 33 ± 7 | – | – | – | – | – | – | – | – | – | – | – | – | – | – | – | – | – | –
COC(=O)[C@@H]1CC2=CC(=O)CC[C@]2(C)[C@@]23O[C@@H]2C[C@@]2(C)[C@@H](CC[C@@]24CCC(=O)O4)[C@H]13 [Eplerenone, eplerenone, reference compound] | – | slightly, but not significantly, attenuated | only slightly attenuated | no effect on renal weight | exacerbated hyperaldosteronemia | not aggravated | partially prevented the elevation of TCP | significantly elevated compared to S, Nx and Nx + L | 150 | No dose-response effect was observed | slight increase in PRA | body growth limitation | – | – | – | – | – | – | –
CCCCc1nc(Cl)c(CO)n1Cc1ccc(-c2ccccc2-c2nn[nH]n2)cc1 [L, losartan] | – | – | – | – | – | – | – | normalized PRA | – | – | – | – | not significantly altered | numerically but not significantly reduced | failed to reduce significantly | partly prevented GS | significantly reduced PAC compared to S or Nx + V | prevented the progression of albuminuria | mitigated
